Reference: patent publication US20060165670A1, “Synbiotic combination” (priority 2003, published 2006)

Experiments:
Lactobacilli = experiment: Continuous culture chemostat with faecal inocula and antimicrobials; type: cell-based; conditions: 1 gl^−1 in medium
Protocol: (§1) (i) Continuous culture system: Three chemostats are set up in a parallel; each is maintained under nitrogen gas, at 37° C., pH 6.5 and a dilution rate of 0.066 h^−1. These conditions are set to resemble conditions typically found in the distal region of the human colon. The chemostats are fed with a control growth medium which comprised (gl^−1 in distilled water): yeast extract 2, peptone water 2, NaCl 0.1, K2HPO4 0.04, KH2PO4 0.04, MgSO4.7H2O 0.01, CaCl2.H2O 0.01, NaHCO3 2, Tween 80 2, hemin 0.05, Vitamin K1 0.01, cysteine.HCl 0.5, bile salts 0.5, glucose 0.4, starch 3, pectin 2 and arabinogalactan 1. The medium is autoclaved at 121° C. for 30 min and, whilst still hot, placed under nitrogen gas. After the medium has cooled, 1 gl^−1 of filter sterilised tetracycline or 1 gl^−1 of filter sterilised nystatin is aseptically added to the medium reservoir. Control chemostats with no antimicrobials added are also run. […]
(§2) (iii) Microbial culture techniques: A sample is taken from each fecal slurry used as inocula and 1 ml samples are also removed from each chemostat when the fermentation system has reached steady state (after 164 h). […] After 24-48 h of Incubation aerobic colonies are counted and after 48-72 h of incubation anaerobic plates are enumerated. […]

yeasts = experiment: as above; type: cell-based; conditions: 1 gl^−1 in medium, compared to control chemostats
Protocol: as §1, §2

Structure (SMILES): C[C@@H]1[C@H](O)[C@@H](C)/C=C/C=C/CC/C=C/C=C/C=C/C=C/C(O[C@H]2O[C@H](C)[C@@H](O)[C@H](N)[C@@H]2O)CC2O[C@](O)(CC(O)C(O)CCC(O)CC(O)CC(O)CC(=O)O[C@H]1C)CC(O)C2C(=O)O (some centres unmarked) [nystatin]
- effect on lactobacilli (Lactobacilli): reduction in lactobacilli
- effect on yeasts (yeasts): yeasts are inhibited
